The record followed here is ChEMBL document CHEMBL4715868, “Neurotrophic isoindolinones from the fruiting bodies of Hericium erinaceus” (2021).

Calls of active or inactive are those of the source. No cut-off for these calls is given here.

Experiment [1] relates to C6. Kind of experiment: Neurotrophic activity in rat C6 cells assessed as NGF production at 10 to 50 uM incubated for 24 hrs by ELISA. In kind it is functional, cell-based. To be noted: dose 10-50 µM.
Experiment [2] relates to C6. Kind of experiment: Upregulation of BDNF production in rat C6 cells co-cultured with N2a cells at 10 to 50 uM incubated for 24 hrs followed by cell transfer to N2a cells by Western blot analysis. It counts as functional, cell-based. The conditions noted are these: dose 10-50 µM.
Experiment [3] deals with C6. Nature of the experiment: Upregulation of Syp production in rat C6 cells co-cultured with N2a cells at 10 to 50 uM incubated for 24 hrs followed by cell transfer to N2a cells by Western blot analysis. The conditions noted are these: dose 10-50 µM. It counts as functional, cell-based.
Experiment [4] deals with C6. Kind of experiment: Upregulation of NGF production in rat C6 cells co-cultured with N2a cells at 10 to 50 uM incubated for 24 hrs followed by cell transfer to N2a cells by Western blot analysis. To be noted: dose 10-50 µM. It counts as functional, cell-based. On the technique in general: A western blot detects proteins with antibodies after separation by electrophoresis.

Experiment [5] is described as follows: Neurotrophic activity in […] N2a cells assessed as increase in NGF-mediated neurite outgrowth at 25 uM incubated for 24 hrs by cell imaging analysis relative to control. It counts as functional.
Experiment [6] in a line: Neurotrophic activity in […] N2a cells assessed as increase in NGF-mediated neurite outgrowth at 10 uM incubated for 24 hrs by cell imaging analysis relative to control. It counts as functional.

`COc1cc2c(c(O)c1C/C=C(\C)CC/C=C(\C)C(=O)O)COC2=O`: the result in the experiment with C6 [1], in the experiment on C6 [2] and in the experiment with C6 [4] was Active. Also, the outcome with C6 [3] was inactive.
As to `COc1cc2c(c(O)c1CCO)CN(CCc1ccccc1)C2=O`, the Activity result in the experiment on C6 [1] was “Dose-dependent effect”; in experiment [5], 122.82%. Further, the result in the experiment with C6 [2] and in the experiment with C6 [4] was Active. In addition, in the experiment on C6 [3], the result was inactive.
For `CC1=C(/C=C/C(C)=C/C=C/C(C)=C/C(=O)O)C(C)(C)CCC1` [TRETINOIN], the Activity in experiment [6] came to 112.08%.
Consider `COc1cc2c(c(O)c1C/C=C(\C)CCC=C(C)C)C(=O)N(CCc1ccccc1)C2`, for which the outcome in the experiment on C6 [1] and in the experiment on C6 [4] was Active. For the same compound, the result in the experiment on C6 [3] was inactive. Further, in experiment [5], the Activity is 116.82%.
